Data taken from patent US20100041892A1, “Therapeutic agent for diabetes” (priority 2005, published 2010).

| Structure (SMILES) | melting point |
| --- | --- |
| COCCCS(=O)(=O)NC(=O)/C=C/c1ccc(OC(C)C)cc1Oc1ncc(C(F)(F)F)cc1Cl [Example 57, (2E)-3-[2-{[3-chloro-5-(trifluoromethyl)pyridin-2-yl]oxy}-4-isopropoxyphenyl]-N-[(3-methoxypropyl)sulfonyl]acrylamide] | 129.5 to 130 °C |
| COCCOc1ccc(COC(=O)NS(=O)(=O)CCC(C)C)c(Oc2ncc(C(F)(F)F)cc2Cl)c1 [Example 59, 2-{[3-chloro-5-(trifluoromethyl)pyridin-2-yl]oxy}-4-(2-methoxyethoxy)benzyl [(3-methylbutyl)sulfonyl]carbamate] | 122 to 124 °C |
| COCCOc1ccc(COC(=O)NS(=O)(=O)NCC(C)C)c(Oc2ncc(C(F)(F)F)cc2Cl)c1 [Example 60, 2-{[3-chloro-5-(trifluoromethyl)pyridin-2-yl]oxy}-4-(2-methoxyethoxy)benzyl [(isobutylamino)sulfonyl]carbamate] | 160 to 161 °C |
| CCCCCS(=O)(=O)NC(=O)OCc1ccc(OCCCC)cc1Oc1ncc(C(F)(F)F)cc1Cl [Example 62, 4-butoxy-2-{[3-chloro-5-(trifluoromethyl)pyridin-2-yl]oxy}benzyl (pentylsulfonyl)carbamate] | 124.5 to 125.5 °C |
| CCCCCS(=O)(=O)NC(=O)OCc1ccc(OC(C)C)cc1Oc1ncc(C(F)(F)F)cc1Cl [Example 63, 2-{[3-chloro-5-(trifluoromethyl)pyridin-2-yl]oxy}-4-isopropoxybenzyl (pentylsulfonyl)carbamate] | 70 to 73 °C |
| COCCOc1ccc(COC(=O)NS(=O)(=O)c2ccc(Cl)cc2)c(Oc2ncc(C(F)(F)F)cc2Cl)c1 [Example 65, 2-{[3-chloro-5-(trifluoromethyl)pyridin-2-yl]oxy}-4-(2-methoxyethoxy)benzyl [(4-chlorophenyl)sulfonyl]carbamate] | 112 to 115 °C |
| COCCOc1ccc(COC(=O)NS(=O)(=O)NCC2CC2)c(Oc2ncc(C(F)(F)F)cc2Cl)c1 [Example 67, 2-{[3-chloro-5-(trifluoromethyl)pyridin-2-yl]oxy}-4-(2-methoxyethoxy)benzyl {[(cyclopropylmethyl)amino]sulfonyl}carbamate] | 150 to 150.5 °C |
| COCCOc1ccc(COC(=O)NS(=O)(=O)Nc2ccc(Cl)cc2)c(Oc2ncc(C(F)(F)F)cc2Cl)c1 [Example 68, 2-{[3-chloro-5-(trifluoromethyl)pyridin-2-yl]oxy}-4-(2-methoxyethoxy)benzyl {[(4-chlorophenyl)amino]sulfonyl}carbamate] | 159 °C (dec.) |
| CCCCCS(=O)(=O)NC(=O)CC(C)c1ccc(OCCOC)cc1Oc1ncc(C(F)(F)F)cc1Cl (stereo not drawn) [Example 77, 3-[2-{[3-chloro-5-(trifluoromethyl)pyridin-2-yl]oxy}-4-(2-methoxyethoxy)phenyl]-N-(pentylsulfonyl)butanamide] | 136.9 to 137.1 °C |
| CCCCCS(=O)(=O)NC(=O)CCc1cc(OC(C)C)nn1Cc1ccc(F)cc1F [Example 80, 3-[1-(2,4-difluorobenzyl)-3-isopropoxy-1H-pyrazol-5-yl]-N-(pentylsulfonyl)propanamide] | 107 to 108 °C |
| CC(C)Oc1cc(CCC(=O)NS(=O)(=O)c2ccccc2)n(Cc2ccc(Cl)cc2Cl)n1 [Example 82, 3-[1-(2,4-dichlorobenzyl)-3-isopropoxy-1H-pyrazol-5-yl]-N-(phenylsulfonyl)propanamide] | 184 to 185 °C |
| CC(C)Oc1cc(CCC(=O)NS(=O)(=O)c2ccc(C(F)(F)F)cc2)n(Cc2ccc(Cl)cc2Cl)n1 [Example 83, 3-[1-(2,4-dichlorobenzyl)-3-isopropoxy-1H-pyrazol-5-yl]-N-{[4-(trifluoromethyl)phenyl]sulfonyl}propanamide] | 167 to 169 °C |
| CCCS(=O)(=O)NC(=O)CCc1cc(OC(C)C)nn1Cc1ccc(Cl)cc1Cl [Example 85, 3-[1-(2,4-dichlorobenzyl)-3-isopropoxy-1H-pyrazol-5-yl]-N-(propylsulfonyl)propanamide] | 124 to 126 °C |
| CCCCCCS(=O)(=O)NC(=O)CCc1cc(OC(C)C)nn1Cc1ccc(Cl)cc1Cl [Example 87, 3-[1-(2,4-dichlorobenzyl)-3-isopropoxy-1H-pyrazol-5-yl]-N-(hexylsulfonyl)propanamide] | 103 to 106 °C |
| Cc1ccccc1S(=O)(=O)NC(=O)CCc1cc(OC(C)C)nn1Cc1ccc(Cl)cc1Cl [Example 88, 3-[1-(2,4-dichlorobenzyl)-3-isopropoxy-1H-pyrazol-5-yl]-N-[(2-methylphenyl)sulfonyl]propanamide] | 165 to 166 °C |
| CC(C)Oc1cc(CCC(=O)NS(=O)(=O)C(C)C)n(Cc2ccc(Cl)cc2Cl)n1 [Example 89, 3-[1-(2,4-dichlorobenzyl)-3-isopropoxy-1H-pyrazol-5-yl]-N-(isopropylsulfonyl)propanamide] | 135 to 136 °C |
| CC(C)Oc1cc(CCC(=O)NS(=O)(=O)C2CCCCC2)n(Cc2ccc(Cl)cc2Cl)n1 [Example 90, N-(cyclohexylsulfonyl)-3-[1-(2,4-dichlorobenzyl)-3-isopropoxy-1H-pyrazol-5-yl]propanamide] | 137 to 138 °C |
| CC(C)Oc1cc(CCC(=O)NS(=O)(=O)CCCc2ccccc2)n(Cc2ccc(Cl)cc2Cl)n1 [Example 91, 3-[1-(2,4-dichlorobenzyl)-3-isopropoxy-1H-pyrazol-5-yl]-N-[(3-phenylpropyl)sulfonyl]propanamide] | 132 to 134 °C |
| CC(C)CCS(=O)(=O)NC(=O)CCc1cc(OC(C)C)nn1Cc1ccc(Cl)cc1Cl [Example 92, 3-[1-(2,4-dichlorobenzyl)-3-isopropoxy-1H-pyrazol-5-yl]-N-[(3-methylbutyl)sulfonyl]propanamide] | 143 to 145 °C |
| CCCCCS(=O)(=O)NC(=O)/C=C/c1cc(OCCCC)nn1Cc1ccc(Cl)cc1Cl [Example 98, (2E)-3-[3-butoxy-1-(2,4-dichlorobenzyl)-1H-pyrazol-5-yl]-N-(pentylsulfonyl)acrylamide] | 95 to 98 °C |

Further lines, results first:

| melting point | Structure (SMILES) |
| --- | --- |
| 91.7 to 91.8 °C | CCCCNC(=O)OCCCc1ccc(OCCOC)cc1Oc1ncc(C(F)(F)F)cc1Cl [Example 49, 3-[2-{[3-chloro-5-(trifluoromethyl)pyridin-2-yl]oxy}-4-(2-methoxyethoxy)phenyl]propyl butylcarbamate] |
| 54 to 55.2 °C | CCCCN(C)C(=O)OCCCc1ccc(OCCOC)cc1Oc1ncc(C(F)(F)F)cc1Cl [Example 50, 3-[2-{[3-chloro-5-(trifluoromethyl)pyridin-2-yl]oxy}-4-(2-methoxyethoxy)phenyl]propyl butyl(methyl)carbamate] |
| 94 to 94.5 °C | CCN(CC)C(=O)COc1ccc(CCCOC(=O)NCC2CC2)c(Oc2ncc(C(F)(F)F)cc2Cl)c1 [Example 52, 3-{2-{[3-chloro-5-(trifluoromethyl)pyridin-2-yl]oxy}-4-[2-(diethylamino)-2-oxoethoxy]phenyl}propyl (cyclopropylmethyl)carbamate] |
| 112.8 to 113 °C | CCOC(=O)COc1ccc(CCCOC(=O)NCC2CC2)c(Oc2ncc(C(F)(F)F)cc2Cl)c1 [Example 53, ethyl {3-{[3-chloro-5-(trifluoromethyl)-pyridin-2-yl]oxy}-4-[3-({[(cyclopropylmethyl)amino]carbonyl}-oxy)propyl]phenoxy}acetate] |
| 83.5 to 85 °C | COCCCNC(=O)OCCCc1ccc(OCCOC)cc1Oc1ncc(C(F)(F)F)cc1Cl [Example 55, 3-[2-{[3-chloro-5-(trifluoromethyl)pyridin-2-yl]oxy}-4-(2-methoxyethoxy)phenyl]propyl (3-methoxypropyl)carbamate] |
| 66 to 68 °C | CCOCCNC(=O)OCCCc1ccc(OCCOC)cc1Oc1ncc(C(F)(F)F)cc1Cl [Example 56, 3-[2-{[3-chloro-5-(trifluoromethyl)pyridin-2-yl]oxy}-4-(2-methoxyethoxy)phenyl]propyl (2-ethoxyethyl)carbamate] |
| 153 to 155 °C | CCCCCNS(=O)(=O)NC(=O)OCc1ccc(OCCOC)cc1Oc1ncc(C(F)(F)F)cc1Cl [Example 61, 2-{[3-chloro-5-(trifluoromethyl)pyridin-2-yl]oxy}-4-(2-methoxyethoxy)benzyl [(pentylamino)sulfonyl]carbamate] |
| 164 to 165 °C | CCCCNS(=O)(=O)NC(=O)OCc1ccc(OCCOC)cc1Oc1ncc(C(F)(F)F)cc1Cl [Example 66, 2-{[3-chloro-5-(trifluoromethyl)pyridin-2-yl]oxy}-4-(2-methoxyethoxy)benzyl [(butylamino)sulfonyl]carbamate] |
| 158 to 159 °C | COCCOc1ccc(CCC(=O)NS(N)(=O)=O)c(Oc2ncc(C(F)(F)F)cc2Cl)c1 [Example 73, N-(aminosulfonyl)-3-[2-{[3-chloro-5-(trifluoromethyl)pyridin-2-yl]oxy}-4-(2-methoxyethoxy)phenyl]propanamide] |
| 96 to 97 °C | CCCCCS(=O)(=O)NC(=O)CCCc1ccc(OCCOC)cc1Oc1ncc(C(F)(F)F)cc1Cl [Example 74, 4-[2-{[3-chloro-5-(trifluoromethyl)pyridin-2-yl]oxy}-4-(2-methoxyethoxy)phenyl]-N-(pentylsulfonyl)butanamide] |
| 149 to 149.5 °C | COCCCNS(=O)(=O)NC(=O)OCc1ccc(OCCOC)cc1Oc1ncc(C(F)(F)F)cc1Cl [Example 75, 2-{[3-chloro-5-(trifluoromethyl)pyridin-2-yl]oxy}-4-(2-methoxyethoxy)benzyl {[(3-methoxypropyl)amino]sulfonyl}carbamate] |
| 142.5 to 143 °C | CCOCCNS(=O)(=O)NC(=O)OCc1ccc(OCCOC)cc1Oc1ncc(C(F)(F)F)cc1Cl [Example 76, 2-{[3-chloro-5-(trifluoromethyl)pyridin-2-yl]oxy}-4-(2-methoxyethoxy)benzyl {[(2-ethoxyethyl)amino]sulfonyl}carbamate] |
| 107 to 109 °C | COCCCS(=O)(=O)NC(=O)CC(C)c1ccc(OCCOC)cc1Oc1ncc(C(F)(F)F)cc1Cl (stereo not drawn) [Example 78, 3-[2-{[3-chloro-5-(trifluoromethyl)pyridin-2-yl]oxy}-4-(2-methoxyethoxy)phenyl]-N-[(3-methoxypropyl)sulfonyl]butanamide] |
